# Measured values published in publication PMC4450297, “Screening Active Compounds from Garcinia Species Native to China Reveals Novel Compounds Targeting the STAT/JAK Signaling Pathway” (BioMed Research International, 2015).
# Assays:
# Assay in all cases: Cell panel screen (CellTiter-Glo)
# Assay type in all cases: cell-based, human
# [1] = test system: J82; conditions: J82 (Urinary bladder), 20 micromolar, 72 hrs
# In short: (§1)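 Tested once at 20 μM (final) over 72 h in cells cultured with 10% FBS. Luciferase/ATP luminescence read-out, background-corrected and normalised to vehicle controls.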
# [2] = test system: NCI-H1623; conditions: NCI-H1623 (Lung), 20 micromolar, 72 hrs
# In short: as §1
# [3] = test system: ZR-75-30; conditions: ZR-75-30 (Breast), 20 micromolar, 72 hrs
# In short: as §1
# [4] = test system: NCI-H524; conditions: NCI-H524 (Lung), 20 micromolar, 72 hrs
# In short: as §1
# [5] = test system: RL95; conditions: RL95 (Uterus), 20 micromolar, 72 hrs
# In short: as §1
# [6] = test system: NCI-H2405; conditions: NCI-H2405 (Lung), 20 micromolar, 72 hrs
# In short: as §1
# [7] = test system: HCC1395; conditions: HCC1395 (Breast), 20 micromolar, 72 hrs
# In short: as §1
# [8] = test system: HGC-27; conditions: HGC-27 (Stomach), 20 micromolar, 72 hrs
# In short: as §1
# [9] = test system: A498; conditions: A498 (listed under Lung), 20 micromolar, 72 hrs
# In short: as §1
# [10] = test system: HCC1937; conditions: HCC1937 (Breast), 20 micromolar, 72 hrs
# In short: as §1
# [11] = test system: M059J; conditions: M059J (Brain), 20 micromolar, 72 hrs
# In short: as §1
# [12] = test system: C8166; conditions: C8166 (Leukemia), 20 micromolar, 72 hrs
# In short: as §1
# [13] = test system: NCI-H1770; conditions: NCI-H1770 (Lung), 20 micromolar, 72 hrs
# In short: as §1
# [14] = test system: T98G; conditions: T98G (Brain), 20 micromolar, 72 hrs
# In short: as §1
# [15] = test system: TCCSUP; conditions: TCCSUP (Urinary bladder), 20 micromolar, 72 hrs
# In short: as §1
# [16] = test system: HEC-1-A; conditions: HEC-1-A (Uterus), 20 micromolar, 72 hrs
# In short: as §1
# [17] = test system: BT-549; conditions: BT-549 (Breast), 20 micromolar, 72 hrs
# In short: as §1
# [18] = test system: HCC1569; conditions: HCC1569 (Breast), 20 micromolar, 72 hrs
# In short: as §1
# [19] = test system: NCI-H1694; conditions: NCI-H1694 (Lung), 20 micromolar, 72 hrs
# In short: as §1
# [20] = test system: NCI-H28; conditions: NCI-H28 (Lung), 20 micromolar, 72 hrs
# In short: as §1
# [21] = test system: Bel-7402; conditions: Bel-7402 (Liver), 20 micromolar, 72 hrs
# In short: as §1
# [22] = test system: MSTO-211-H; conditions: MSTO-211-H (Lung), 20 micromolar, 72 hrs
# In short: as §1
# [23] = test system: Colo 205; conditions: Colo 205, 20 micromolar, 72 hrs
# In short: as §1
# [24] = test system: A704; conditions: A704 (Kidney), 20 micromolar, 72 hrs
# In short: as §1
# [25] = test system: CCF-STTG1; conditions: CCF-STTG1 (Brain), 20 micromolar, 72 hrs
# In short: as §1
# [26] = test system: SW13; conditions: SW13 (Adrenal gland), 20 micromolar, 72 hrs
# In short: as §1
# [27] = test system: ChaGo-K-1; conditions: ChaGo-K-1 (Lung), 20 micromolar, 72 hrs
# In short: as §1
# [28] = test system: BT-474; conditions: BT-474 (Breast), 20 micromolar, 72 hrs
# In short: as §1
# [29] = test system: HT-1197; conditions: HT-1197 (Urinary bladder), 20 micromolar, 72 hrs
# In short: as §1
# [30] = test system: CW-2; conditions: CW-2 (Colon), 20 micromolar, 72 hrs
# In short: as §1
# [31] = test system: T47D; conditions: T47D (Breast), 20 micromolar, 72 hrs
# In short: as §1
# [32] = test system: HCC1599; conditions: HCC1599 (Breast), 20 micromolar, 72 hrs
# In short: as §1
# [33] = test system: HPAF-II; conditions: HPAF-II (Pancreas), 20 micromolar, 72 hrs
# In short: as §1
# [34] = test system: Panc 03.27; conditions: Panc 03.27 (Pancreas), 20 micromolar, 72 hrs
# In short: as §1
# [35] = test system: C3A; conditions: C3A (Liver), 20 micromolar, 72 hrs
# In short: as §1
# [36] = test system: NCI-H2347; conditions: NCI-H2347 (Lung), 20 micromolar, 72 hrs
# In short: as §1
Compound,Percent Inhibition [1],Percent Inhibition [2],Percent Inhibition [3],Percent Inhibition [4],Percent Inhibition [5],Percent Inhibition [6],Percent Inhibition [7],Percent Inhibition [8],Percent Inhibition [9],Percent Inhibition [10],Percent Inhibition [11],Percent Inhibition [12],Percent Inhibition [13],Percent Inhibition [14],Percent Inhibition [15],Percent Inhibition [16],Percent Inhibition [17],Percent Inhibition [18],Percent Inhibition [19],Percent Inhibition [20],further results
O=c1c2cc(O)ccc2oc2cccc(O)c12 [Gof3],20%,-7%,41%,18%,42%,-13%,35%,34%,39%,8%,53%,29%,17%,27%,32%,19%,16%,29%,29%,27%,Percent Inhibition [21]: 45%; Percent Inhibition [22]: 36%; Percent Inhibition [23]: 22%; Percent Inhibition [24]: 23%; Percent Inhibition [25]: 31%; Percent Inhibition [26]: 33%; Percent Inhibition [27]: 12%; Percent Inhibition [28]: 7%; Percent Inhibition [29]: 28%; Percent Inhibition [30]: 39%; Percent Inhibition [31]: 10%; Percent Inhibition [32]: 36%; Percent Inhibition [33]: 15%; Percent Inhibition [34]: 7%; Percent Inhibition [35]: 7%; Percent Inhibition [36]: 20%
CCOC1C2C(=O)c3c(O)c4c(c(CC=C(C)C)c3O[C@@]23[C@H]2C[C@@H]1C(=O)[C@]3(C/C=C(/C)C(=O)O)OC2(C)C)OC(C)(CCC=C(C)C)C=C4 (stereo partly drawn) [GB19],99%,99%,99%,99%,99%,99%,99%,99%,99%,99%,99%,99%,99%,99%,99%,99%,99%,99%,99%,99%,Percent Inhibition [21]: 99%; Percent Inhibition [22]: 99%; Percent Inhibition [23]: 99%; Percent Inhibition [24]: 99%; Percent Inhibition [25]: 99%; Percent Inhibition [26]: 99%; Percent Inhibition [27]: 99%; Percent Inhibition [28]: 99%; Percent Inhibition [29]: 99%; Percent Inhibition [30]: 99%; Percent Inhibition [31]: 99%; Percent Inhibition [32]: 99%; Percent Inhibition [33]: 98%; Percent Inhibition [34]: 99%; Percent Inhibition [35]: 99%; Percent Inhibition [36]: 98%
Bannaxanthone G [bn-21],88%,72%,99%,100%,88%,80%,95%,84%,60%,92%,94%,90%,94%,77%,84%,71%,70%,76%,100%,73%,Percent Inhibition [21]: 93%; Percent Inhibition [22]: 90%; Percent Inhibition [23]: 100%; Percent Inhibition [24]: 64%; Percent Inhibition [25]: 68%; Percent Inhibition [26]: 92%; Percent Inhibition [27]: 95%; Percent Inhibition [28]: 88%; Percent Inhibition [29]: 91%; Percent Inhibition [30]: 99%; Percent Inhibition [31]: 64%; Percent Inhibition [32]: 97%; Percent Inhibition [33]: 84%; Percent Inhibition [34]: 95%; Percent Inhibition [35]: 62%; Percent Inhibition [36]: 75%
